{
  "source": "patent EP0183129A1",
  "about": "“Quinolonecarboxylic acid derivatives” (KYORIN PHARMACEUTICAL CO., LTD., priority 1984, dated 1986)",
  "key": {"[1]": {"test_system": "Fusobacterium varium KYA 8501", "assay": "In vitro antibacterial activity, MIC (standard strain)", "assay_type": "cell-based", "settings": "Fusobacterium varium, KYA8501, Fusobacterium varium KYA 8501; 10^6 cells/ml; standard strain; read-out: MIC"}, "[2]": {"test_system": "Bacillus subtilis PCI 219", "assay": "In vitro antibacterial activity, MIC (standard strain)", "assay_type": "cell-based", "settings": "PCI219"}, "[3]": {"test_system": "S. aureus IID 670 (Terajima)", "assay": "In vitro antibacterial activity, MIC (standard strain)", "assay_type": "cell-based, Staphylococcus aureus", "settings": "Staphylococcus aureus"}, "S. agalactiae 4049": {"test_system": "S. agalactiae 4049", "assay": "In vitro antibacterial activity, MIC (clinical isolates)", "assay_type": "cell-based", "settings": "Streptococcus agalactiae; S. agalactiae 4049; 10^6 cells/ml; clinical isolate; read-out: MIC"}, "[4]": {"test_system": "Bacteroides fragilis GM 7000", "assay": "In vitro antibacterial activity, MIC (standard strain)", "assay_type": "cell-based", "settings": "GM7000; Bacteroides fragilis GM 7000; 10^6 cells/ml; standard strain; read-out: MIC"}, "S. pyogenes IID 692": {"test_system": "S. pyogenes IID 692", "assay": "In vitro antibacterial activity, MIC (standard strain)", "assay_type": "cell-based", "settings": "Streptococcus pyogenes, IID692; S. pyogenes IID 692; 10^6 cells/ml; standard strain; read-out: MIC"}, "[5]": {"test_system": "Clostridium perfringens KYA 13123", "assay": "microbe, parasite or virus in culture", "assay_type": "cell-based", "settings": "KYA13123"}, "[6]": {"test_system": "Enterobacter cloacae IID 977", "assay": "In vitro antibacterial activity, MIC (standard strain)", "assay_type": "cell-based", "settings": "Enterobacter cloacae, IID977, Enterobacter cloacae IID 977; 10^6 cells/ml; standard strain; read-out: MIC"}, "E. coli ML4707": {"test_system": "E. coli ML4707", "assay": "In vivo antibacterial activity against systemic infection in mice", "design": "species or system mice (ICR-S)", "settings": "Escherichia coli, ML4707; mice (ICR-S); oral, an hour after intraperitoneal infection; challenge dose 2.7 x 10^6 ~ 8.8 x 10^6 cfu/mouse; read-out: ED50 E. coli ML4707", "experimental": "Experiment-2 In vivo antibacterial activity against systemic infection in mice (ICR-S)\nThe infections were produced by intraperitoneal injection of a suspension of the bacterial culture corresponding to the germ studied. The products were administered orally at an hour after the infection."}, "Shigella sonnei IID 969": {"test_system": "Shigella sonnei IID 969", "assay": "In vitro antibacterial activity, MIC (standard strain)", "assay_type": "cell-based", "settings": "IID969, 10^6 cells/ml", "experimental": "Experiment-1 In vitro antibacterial activity\nThe in vitro antibacterial activity against gram-positive and gram-negative bacteria has been investivated.\nThe minimum inhibitory concentration (MIC) was determined in accordance with the method recommended by Japan Society of Chemotherapy."}, "S. agalactiae 4468": {"test_system": "S. agalactiae 4468", "assay": "In vitro antibacterial activity, MIC (clinical isolates)", "assay_type": "cell-based", "settings": "Streptococcus agalactiae; S. agalactiae 4468; 10^6 cells/ml; clinical isolate; read-out: MIC"}, "S. pneumoniae IID 552": {"test_system": "S. pneumoniae IID 552", "assay": "In vitro antibacterial activity, MIC (standard strain)", "assay_type": "cell-based", "settings": "Streptococcus pneumoniae, IID552; S. pneumoniae IID 552; 10^6 cells/ml; standard strain; read-out: MIC"}, "[7]": {"test_system": "Escherichia coli NIHJ JC-2", "assay": "In vitro antibacterial activity, MIC (standard strain)", "assay_type": "cell-based", "settings": "Escherichia coli, NIHJJC2, Escherichia coli NIHJ JC-2; 10^6 cells/ml; standard strain; read-out: MIC"}, "[8]": {"test_system": "Staphylococcus aureus 209 P", "assay": "In vitro antibacterial activity, MIC (standard strain)", "assay_type": "cell-based"}, "[9]": {"test_system": "Salmonella entritidis IID 604", "assay": "In vitro antibacterial activity, MIC (standard strain)", "assay_type": "cell-based", "settings": "IID604; Salmonella entritidis IID 604; 10^6 cells/ml; standard strain; read-out: MIC"}, "[10]": {"test_system": "Pseudomonas aeruginosa V-1", "assay": "In vitro antibacterial activity, MIC (standard strain)", "assay_type": "cell-based", "settings": "V1; Pseudomonas aeruginosa V-1; 10^6 cells/ml; standard strain; read-out: MIC"}, "P. mirabilis IID 994": {"test_system": "P. mirabilis IID 994", "assay": "In vitro antibacterial activity, MIC (standard strain)", "assay_type": "cell-based", "settings": "Proteus mirabilis, IID994"}, "B. fragilis 0558": {"test_system": "B. fragilis 0558", "assay": "In vitro antibacterial activity, MIC (standard strain)", "assay_type": "cell-based, Bacteroides fragilis", "settings": "Bacteroides fragilis, 0558, B. fragilis 0558; 10^6 cells/ml; standard strain; read-out: MIC"}, "P. aeruginosa IID 1210": {"test_system": "P. aeruginosa IID 1210", "assay": "In vitro antibacterial activity, MIC (standard strain)", "assay_type": "cell-based", "settings": "Pseudomonas aeruginosa, IID1210; P. aeruginosa IID 1210; 10^6 cells/ml; standard strain; read-out: MIC"}, "E. coli ATCC 10536": {"test_system": "E. coli ATCC 10536", "assay": "In vitro antibacterial activity, MIC (standard strain)", "assay_type": "cell-based", "settings": "Escherichia coli, ATCC10536"}, "S. faecalis 401": {"test_system": "S. faecalis 401", "assay": "In vitro antibacterial activity, MIC (clinical isolates)", "assay_type": "cell-based", "settings": "Enterococcus faecalis; S. faecalis 401; 10^6 cells/ml; clinical isolate; read-out: MIC"}, "S. pneumoniae 3227": {"test_system": "S. pneumoniae 3227", "assay": "In vitro antibacterial activity, MIC (clinical isolates)", "assay_type": "cell-based", "settings": "Streptococcus pneumoniae; S. pneumoniae 3227; 10^6 cells/ml; clinical isolate; read-out: MIC"}, "[11]": {"test_system": "Morganella morganii IID 602", "assay": "In vitro antibacterial activity, MIC (standard strain)", "assay_type": "cell-based", "settings": "IID602; Morganella morganii IID 602; 10^6 cells/ml; standard strain; read-out: MIC"}, "S. faecalis 402": {"test_system": "S. faecalis 402", "assay": "In vitro antibacterial activity, MIC (clinical isolates)", "assay_type": "cell-based", "settings": "Enterococcus faecalis; S. faecalis 402; 10^6 cells/ml; clinical isolate; read-out: MIC"}, "[12]": {"test_system": "Streptococcus pyogenes S-8", "assay": "In vitro antibacterial activity, MIC (standard strain)", "assay_type": "cell-based", "settings": "S8; Streptococcus pyogenes S-8; 10^6 cells/ml; standard strain; read-out: MIC"}},
  "note": "Like-named read-outs stand apart in the source and are kept apart here.",
  "data": [
    {"smiles": "NCC1CCN(c2c(F)cc3c(=O)c(C(=O)O)cn(C4CC4)c3c2Br)C1", "note": "(stereo not drawn) [Example 15, 7-(3-Aminomethyl-l-pyrrolidinyl)-8-bromo-l-cyclopropyl-6-fluoro-1,4-dihydro-4-oxo-3-quinolinecarboxylic acid]", "values": [
      {"measurement": "MIC", "setting": "[1]", "value": 0.39, "unit": "µg/mL"},
      {"measurement": "MIC", "setting": "[2]; Bacillus subtilis", "value": 0.0125, "unit": "µg/mL"},
      {"measurement": "MIC", "setting": "[3]; IID670", "value": 0.0125, "unit": "µg/mL"},
      {"measurement": "MIC", "setting": "S. agalactiae 4049", "value": 0.05, "unit": "µg/mL"},
      {"measurement": "MIC", "setting": "[4]", "value": 0.1, "unit": "µg/mL"},
      {"measurement": "MIC", "setting": "S. pyogenes IID 692", "value": 0.05, "unit": "µg/mL"},
      {"measurement": "MIC", "setting": "[5]", "value": 0.1, "unit": "µg/mL"},
      {"measurement": "MIC", "setting": "[6]", "value": 0.05, "unit": "µg/mL"},
      {"measurement": "ED50", "setting": "E. coli ML4707", "value": 7.1, "unit": "mg/kg"},
      {"measurement": "MIC", "setting": "Shigella sonnei IID 969", "value": 0.0125, "unit": "µg/mL"},
      {"measurement": "MIC", "setting": "S. agalactiae 4468", "value": 0.05, "unit": "µg/mL"},
      {"measurement": "MIC", "setting": "S. pneumoniae IID 552", "value": 0.05, "unit": "µg/mL"},
      {"measurement": "MIC", "setting": "[7]", "value": "≤ 0.0063", "unit": "µg/mL"},
      {"measurement": "MIC", "setting": "[8]; Staphylococcus aureus, 209P", "value": 0.0125, "unit": "µg/mL"},
      {"measurement": "MIC", "setting": "[9]", "value": 0.025, "unit": "µg/mL"},
      {"measurement": "MIC", "setting": "[10]", "value": 0.1, "unit": "µg/mL"},
      {"measurement": "MIC", "setting": "P. mirabilis IID 994", "value": 0.0125, "unit": "µg/mL"},
      {"measurement": "MIC", "setting": "B. fragilis 0558", "value": "≤ 0.05", "unit": "µg/mL"},
      {"measurement": "MIC", "setting": "P. aeruginosa IID 1210", "value": 0.78, "unit": "µg/mL"},
      {"measurement": "MIC", "setting": "E. coli ATCC 10536", "value": 0.0125, "unit": "µg/mL"},
      {"measurement": "MIC", "setting": "S. faecalis 401", "value": 0.2, "unit": "µg/mL"},
      {"measurement": "MIC", "setting": "S. pneumoniae 3227", "value": 0.05, "unit": "µg/mL"},
      {"measurement": "MIC", "setting": "[11]", "value": 0.1, "unit": "µg/mL"},
      {"measurement": "MIC", "setting": "S. faecalis 402", "value": 0.2, "unit": "µg/mL"},
      {"measurement": "MIC", "setting": "[12]", "value": 0.05, "unit": "µg/mL"}
    ]},
    {"smiles": "CNCC1CCN(c2c(F)cc3c(=O)c(C(=O)O)cn(C4CC4)c3c2Br)C1", "note": "(stereo not drawn) [Example 16, 8-Bromo-1-cyclopropyl-6-fluoro-1,4-dihydro-7-(3-methylaminomethyl-l-pyrrolidinyl)-4-oxo-3-quinolinecarboxylic acid]", "values": [
      {"measurement": "MIC", "setting": "[1]", "value": 0.39, "unit": "µg/mL"},
      {"measurement": "MIC", "setting": "[2]; Bacillus subtilis PCI 219, 10^6 cells/ml, standard strain, read-out: MIC", "value": 0.0125, "unit": "µg/mL"},
      {"measurement": "MIC", "setting": "[3]; IID670, S. aureus IID 670 (Terajima), 10^6 cells/ml, standard strain, read-out: MIC", "value": 0.025, "unit": "µg/mL"},
      {"measurement": "MIC", "setting": "S. agalactiae 4049", "value": 0.05, "unit": "µg/mL"},
      {"measurement": "MIC", "setting": "[4]", "value": 0.2, "unit": "µg/mL"},
      {"measurement": "MIC", "setting": "S. pyogenes IID 692", "value": 0.1, "unit": "µg/mL"},
      {"measurement": "MIC", "setting": "[5]", "value": 0.1, "unit": "µg/mL"},
      {"measurement": "MIC", "setting": "[6]", "value": 0.1, "unit": "µg/mL"},
      {"measurement": "ED50", "setting": "E. coli ML4707", "value": 1.9, "unit": "mg/kg"},
      {"measurement": "MIC", "setting": "Shigella sonnei IID 969", "value": 0.025, "unit": "µg/mL"},
      {"measurement": "MIC", "setting": "S. agalactiae 4468", "value": 0.05, "unit": "µg/mL"},
      {"measurement": "MIC", "setting": "S. pneumoniae IID 552", "value": 0.05, "unit": "µg/mL"},
      {"measurement": "MIC", "setting": "[7]", "value": 0.0125, "unit": "µg/mL"},
      {"measurement": "MIC", "setting": "[8]; Staphylococcus aureus 209 P, 10^6 cells/ml, standard strain, read-out: MIC", "value": 0.0125, "unit": "µg/mL"},
      {"measurement": "MIC", "setting": "[9]", "value": 0.05, "unit": "µg/mL"},
      {"measurement": "MIC", "setting": "[10]", "value": 0.2, "unit": "µg/mL"},
      {"measurement": "MIC", "setting": "P. mirabilis IID 994; P. mirabilis IID 994, 10^6 cells/ml, standard strain, read-out: MIC", "value": 0.025, "unit": "µg/mL"},
      {"measurement": "MIC", "setting": "B. fragilis 0558", "value": 0.1, "unit": "µg/mL"},
      {"measurement": "MIC", "setting": "P. aeruginosa IID 1210", "value": 1.56, "unit": "µg/mL"},
      {"measurement": "MIC", "setting": "E. coli ATCC 10536; E. coli ATCC 10536, 10^6 cells/ml, standard strain, read-out: MIC", "value": 0.025, "unit": "µg/mL"},
      {"measurement": "MIC", "setting": "S. faecalis 401", "value": 0.1, "unit": "µg/mL"},
      {"measurement": "MIC", "setting": "S. pneumoniae 3227", "value": 0.05, "unit": "µg/mL"},
      {"measurement": "MIC", "setting": "[11]", "value": 0.1, "unit": "µg/mL"},
      {"measurement": "MIC", "setting": "S. faecalis 402", "value": 0.1, "unit": "µg/mL"},
      {"measurement": "MIC", "setting": "[12]", "value": 0.05, "unit": "µg/mL"}
    ]}
  ]
}
